{"source": "patent US20230158049A1", "about": "“COMPOSITIONS AND METHODS FOR TREATING VIRUSES” (University of Virginia Patent Foundation, priority 2020, published 2023)", "system": "SARS-CoV-2", "settings": "[…]"}
{"smiles": "C[C@H]1c2cccc(O)c2C(=O)C2=C(O)[C@]3(O)C(=O)C(C(N)=O)=C(O)[C@@H](N(C)C)[C@@H]3[C@@H](O)[C@@H]21", "note": "[doxycycline]", "values": [{"measurement": "time to symptom improvement", "setting": "doxycycline 100 mg twice daily with osimertinib", "value": "≤ 1", "unit": "week"}, {"measurement": "time to improvement in all symptoms", "setting": "doxycycline 200 mg then 100 mg daily for 5 days", "value": "≤ 5", "unit": "days"}]}
